Experiments:
[1] = test system: human tumor xenograft models including a primary bladder tumor model and the rituximab-insensitive non-Hodgkin's lymphoma model, DoHH2T53; conditions: cited from earlier work
[2] = test system: Japanese patients with advanced solid tumors; test: Laboratory assessments; type: in vivo, human; conditions: for Blood sodium decreased, patients with grade ≥3 abnormal laboratory finding: cut-off <130 mmol/L; for Lymphocyte count decreased, patients with grade ≥3 abnormal laboratory finding / Lymphopenia, patients with grade ≥3 abnormal laboratory finding: cut-off <0.5 × 10^9/L; for Neutropenia, patients with grade ≥3 abnormal laboratory finding: cut-off <1.0 × 10^9/L; for Leukopenia, patients with grade ≥3 abnormal laboratory finding: cut-off <2.0 × 10^9/L; for Hemoglobin decreased, patients with grade ≥3 abnormal laboratory finding: cut-off <8.0 g/dL; for Thrombocytopenia, patients with grade ≥3 abnormal laboratory finding: cut-off <50.0 × 10^9/L; for Weight decreased, patients with grade ≥3 abnormal vital sign: cut-off ≥20% from baseline
[3] = test system: broad panel of solid and hematologic tumor cell lines; conditions: cited from earlier work
[4] = Cycle 1, Day 8, Total, all doses (N = 18)
[5] = Cycle 1, Day 15, Total, all doses (N = 18)
[6] = Cycle 1, Day 22, Total, all doses (N = 18)

Cc1ccc(C(=O)N(CCCN)C(c2nc3snc(C)c3c(=O)n2Cc2ccccc2)C(C)C)cc1 (centres unmarked) [AZD4877]
Activity in human tumor xenograft models [1]: activity was observed | Any grade ≥3 finding/vital sign, patients with grade ≥3 abnormal laboratory findings/vital signs ([2]; 10 mg (N = 3)): 1 (33) N (%) | Blood sodium decreased, patients with grade ≥3 abnormal laboratory finding ([2]; 10 mg (N = 3)): 0 N (%) | Lymphocyte count decreased, patients with grade ≥3 abnormal laboratory finding ([2]; 10 mg (N = 3)): 0 N (%) | Lymphopenia, patients with grade ≥3 abnormal laboratory finding ([2]; 10 mg (N = 3)): 0 N (%) | Neutropenia, patients with grade ≥3 abnormal laboratory finding ([2]; 10 mg (N = 3)): 1 (33) N (%) | Leukopenia, patients with grade ≥3 abnormal laboratory finding ([2]; 10 mg (N = 3)): 0 N (%) | Hemoglobin decreased, patients with grade ≥3 abnormal laboratory finding ([2]; 10 mg (N = 3)): 0 N (%) | Thrombocytopenia, patients with grade ≥3 abnormal laboratory finding ([2]; 10 mg (N = 3)): 0 N (%) | Weight decreased, patients with grade ≥3 abnormal vital sign ([2]; 10 mg (N = 3)): 0 N (%) | Any grade ≥3 finding/vital sign, patients with grade ≥3 abnormal laboratory findings/vital signs ([2]; 15 mg (N = 3)): 1 (33) N (%) | Blood sodium decreased, patients with grade ≥3 abnormal laboratory finding ([2]; 15 mg (N = 3)): 0 N (%) | Lymphocyte count decreased, patients with grade ≥3 abnormal laboratory finding ([2]; 15 mg (N = 3)): 0 N (%) | Lymphopenia, patients with grade ≥3 abnormal laboratory finding ([2]; 15 mg (N = 3)): 0 N (%) | Neutropenia, patients with grade ≥3 abnormal laboratory finding ([2]; 15 mg (N = 3)): 1 (33) N (%) | Leukopenia, patients with grade ≥3 abnormal laboratory finding ([2]; 15 mg (N = 3)): 0 N (%) | Hemoglobin decreased, patients with grade ≥3 abnormal laboratory finding ([2]; 15 mg (N = 3)): 0 N (%) | Thrombocytopenia, patients with grade ≥3 abnormal laboratory finding ([2]; 15 mg (N = 3)): 0 N (%) | Weight decreased, patients with grade ≥3 abnormal vital sign ([2]; 15 mg (N = 3)): 0 N (%) | Any grade ≥3 finding/vital sign, patients with grade ≥3 abnormal laboratory findings/vital signs ([2]; 20 mg (N = 6)): 4 (67) N (%) | Blood sodium decreased, patients with grade ≥3 abnormal laboratory finding ([2]; 20 mg (N = 6)): 1 (17) N (%) | Lymphocyte count decreased, patients with grade ≥3 abnormal laboratory finding ([2]; 20 mg (N = 6)): 0 N (%) | Lymphopenia, patients with grade ≥3 abnormal laboratory finding ([2]; 20 mg (N = 6)): 0 N (%) | Neutropenia, patients with grade ≥3 abnormal laboratory finding ([2]; 20 mg (N = 6)): 3 (50) N (%) | Leukopenia, patients with grade ≥3 abnormal laboratory finding ([2]; 20 mg (N = 6)): 3 (50) N (%) | Hemoglobin decreased, patients with grade ≥3 abnormal laboratory finding ([2]; 20 mg (N = 6)): 0 N (%) | Thrombocytopenia, patients with grade ≥3 abnormal laboratory finding ([2]; 20 mg (N = 6)): 0 N (%) | Weight decreased, patients with grade ≥3 abnormal vital sign ([2]; 20 mg (N = 6)): 1 (17) N (%) | Any grade ≥3 finding/vital sign, patients with grade ≥3 abnormal laboratory findings/vital signs ([2]; 25 mg (N = 6)): 6 (100) N (%) | Blood sodium decreased, patients with grade ≥3 abnormal laboratory finding ([2]; 25 mg (N = 6)): 0 N (%) | Lymphocyte count decreased, patients with grade ≥3 abnormal laboratory finding ([2]; 25 mg (N = 6)): 1 (17) N (%) | Lymphopenia, patients with grade ≥3 abnormal laboratory finding ([2]; 25 mg (N = 6)): 1 (17) N (%) | Neutropenia, patients with grade ≥3 abnormal laboratory finding ([2]; 25 mg (N = 6)): 5 (83) N (%) | Leukopenia, patients with grade ≥3 abnormal laboratory finding ([2]; 25 mg (N = 6)): 5 (83) N (%) | Hemoglobin decreased, patients with grade ≥3 abnormal laboratory finding ([2]; 25 mg (N = 6)): 1 (17) N (%) | Thrombocytopenia, patients with grade ≥3 abnormal laboratory finding ([2]; 25 mg (N = 6)): 1 (17) N (%) | Weight decreased, patients with grade ≥3 abnormal vital sign ([2]; 25 mg (N = 6)): 0 N (%) | Patients experiencing grade ≥3 neutropenia ([2]; 25 mg dose cohort): five of six | Platelet count, mean (SD) ([2]; Cycle 1, Day 8, 10 mg (N = 3)): 227.3 (36.7) 10^3/µL | Total ANC (absolute neutrophil count), mean (SD) ([2]; Cycle 1, Day 8, 10 mg (N = 3)): 2.00 (0.37) 10^3/µL | White blood cell count, mean (SD) ([2]; Cycle 1, Day 8, 10 mg (N = 3)): 4.13 (0.63) 10^3/µL | Platelet count, mean (SD) ([2]; Cycle 1, Day 8, 15 mg (N = 3)): 229.0 (35.9) 10^3/µL | Total ANC (absolute neutrophil count), mean (SD) ([2]; Cycle 1, Day 8, 15 mg (N = 3)): 3.23 (1.26) 10^3/µL | White blood cell count, mean (SD) ([2]; Cycle 1, Day 8, 15 mg (N = 3)): 5.50 (1.48) 10^3/µL | Platelet count, mean (SD) ([2]; Cycle 1, Day 8, 20 mg (N = 6)): 245.7 (45.5) 10^3/µL | Total ANC (absolute neutrophil count), mean (SD) ([2]; Cycle 1, Day 8, 20 mg (N = 6)): 1.81 (0.99) 10^3/µL | White blood cell count, mean (SD) ([2]; Cycle 1, Day 8, 20 mg (N = 6)): 2.97 (1.06) 10^3/µL | Platelet count, mean (SD) ([2]; Cycle 1, Day 8, 25 mg (N = 6)): 246.5 (99.7) 10^3/µL | Total ANC (absolute neutrophil count), mean (SD) ([2]; Cycle 1, Day 8, 25 mg (N = 6)): 2.00 (0.97) 10^3/µL | White blood cell count, mean (SD) ([2]; Cycle 1, Day 8, 25 mg (N = 6)): 3.01 (0.99) 10^3/µL | Platelet count, mean (SD) [2, 4]: 240.1 (62.6) 10^3/µL | Total ANC (absolute neutrophil count), mean (SD) [2, 4]: 2.14 (1.01) 10^3/µL | White blood cell count, mean (SD) [2, 4]: 3.60 (1.37) 10^3/µL | Platelet count, mean (SD) ([2]; Cycle 1, Day 15, 10 mg (N = 3)): 203.3 (46.5) 10^3/µL | Total ANC (absolute neutrophil count), mean (SD) ([2]; Cycle 1, Day 15, 10 mg (N = 3)): 1.25 (0.27) 10^3/µL | White blood cell count, mean (SD) ([2]; Cycle 1, Day 15, 10 mg (N = 3)): 3.59 (0.69) 10^3/µL | Platelet count, mean (SD) ([2]; Cycle 1, Day 15, 15 mg (N = 3)): 217.0 (6.1) 10^3/µL | Total ANC (absolute neutrophil count), mean (SD) ([2]; Cycle 1, Day 15, 15 mg (N = 3)): 2.33 (1.62) 10^3/µL | White blood cell count, mean (SD) ([2]; Cycle 1, Day 15, 15 mg (N = 3)): 4.66 (2.19) 10^3/µL | Platelet count, mean (SD) ([2]; Cycle 1, Day 15, 20 mg (N = 6)): 265.2 (79.5) 10^3/µL | Total ANC (absolute neutrophil count), mean (SD) ([2]; Cycle 1, Day 15, 20 mg (N = 6)): 1.49 (0.82) 10^3/µL | White blood cell count, mean (SD) ([2]; Cycle 1, Day 15, 20 mg (N = 6)): 2.82 (1.20) 10^3/µL | Platelet count, mean (SD) ([2]; Cycle 1, Day 15, 25 mg (N = 6)): 184.5 (85.1) 10^3/µL | Total ANC (absolute neutrophil count), mean (SD) ([2]; Cycle 1, Day 15, 25 mg (N = 6)): 0.57 (0.50) 10^3/µL | White blood cell count, mean (SD) ([2]; Cycle 1, Day 15, 25 mg (N = 6)): 1.58 (0.57) 10^3/µL | Platelet count, mean (SD) [2, 5]: 219.9 (73.9) 10^3/µL | Total ANC (absolute neutrophil count), mean (SD) [2, 5]: 1.28 (0.99) 10^3/µL | White blood cell count, mean (SD) [2, 5]: 2.84 (1.55) 10^3/µL | Platelet count, mean (SD) ([2]; Cycle 1, Day 22, 10 mg (N = 3)): 205.0 (54.0) 10^3/µL | Total ANC (absolute neutrophil count), mean (SD) ([2]; Cycle 1, Day 22, 10 mg (N = 3)): 1.68 (0.35) 10^3/µL | White blood cell count, mean (SD) ([2]; Cycle 1, Day 22, 10 mg (N = 3)): 4.09 (0.66) 10^3/µL | Platelet count, mean (SD) ([2]; Cycle 1, Day 22, 15 mg (N = 3)): 232.0 (7.9) 10^3/µL | Total ANC (absolute neutrophil count), mean (SD) ([2]; Cycle 1, Day 22, 15 mg (N = 3)): 2.30 (1.50) 10^3/µL | White blood cell count, mean (SD) ([2]; Cycle 1, Day 22, 15 mg (N = 3)): 4.53 (1.70) 10^3/µL | Platelet count, mean (SD) ([2]; Cycle 1, Day 22, 20 mg (N = 6)): 262.2 (48.0) 10^3/µL | Total ANC (absolute neutrophil count), mean (SD) ([2]; Cycle 1, Day 22, 20 mg (N = 6)): 1.25 (0.69) 10^3/µL | White blood cell count, mean (SD) ([2]; Cycle 1, Day 22, 20 mg (N = 6)): 2.64 (0.69) 10^3/µL | Platelet count, mean (SD) ([2]; Cycle 1, Day 22, 25 mg (N = 6)): 308.7 (117.3) 10^3/µL | Total ANC (absolute neutrophil count), mean (SD) ([2]; Cycle 1, Day 22, 25 mg (N = 6)): 1.41 (0.48) 10^3/µL | White blood cell count, mean (SD) ([2]; Cycle 1, Day 22, 25 mg (N = 6)): 2.73 (0.68) 10^3/µL | Platelet count, mean (SD) [2, 6]: 263.1 (81.1) 10^3/µL | Total ANC (absolute neutrophil count), mean (SD) [2, 6]: 1.55 (0.79) 10^3/µL | White blood cell count, mean (SD) [2, 6]: 3.23 (1.14) 10^3/µL | Any grade ≥3 finding/vital sign, patients with grade ≥3 abnormal laboratory findings/vital signs ([2]; Total, all doses (N = 18)): 12 (67) N (%) | Blood sodium decreased, patients with grade ≥3 abnormal laboratory finding ([2]; Total, all doses (N = 18)): 1 (6) N (%) | Lymphocyte count decreased, patients with grade ≥3 abnormal laboratory finding ([2]; Total, all doses (N = 18)): 1 (6) N (%) | Lymphopenia, patients with grade ≥3 abnormal laboratory finding ([2]; Total, all doses (N = 18)): 1 (6) N (%) | Neutropenia, patients with grade ≥3 abnormal laboratory finding ([2]; Total, all doses (N = 18)): 10 (56) N (%) | Leukopenia, patients with grade ≥3 abnormal laboratory finding ([2]; Total, all doses (N = 18)): 8 (44) N (%) | Hemoglobin decreased, patients with grade ≥3 abnormal laboratory finding ([2]; Total, all doses (N = 18)): 1 (6) N (%) | Thrombocytopenia, patients with grade ≥3 abnormal laboratory finding ([2]; Total, all doses (N = 18)): 1 (6) N (%) | Weight decreased, patients with grade ≥3 abnormal vital sign ([2]; Total, all doses (N = 18)): 1 (6) N (%) | Grade ≥3 leukopenia (laboratory finding), patients ([2]; all doses, 18 patients): 44% | Grade ≥3 neutropenia (laboratory finding), patients ([2]; all doses, 18 patients): 56% | Growth of tumor cell lines [3]: inhibit growth
